The record followed here is PubChem BioAssay AID1963447 (Molecular Pharmacology Branch, DTP, NCI, 2024).

In the assay the test system is 885512-296-R-J2-PDC complex spheroid growth, % test/control. The experiment in a line: Anticancer human tumor 885512-296-R-J2-PDC patient-derived breast carcinoma cell line growth inhibition [Asc]. To be noted: for viability, T/C: stronger effect = lower value. The method, then:
Multicellular complex tumor spheroid response to apoptosis pathway targeting inhibitors Alrizomadlin, Pelcitoclax, and Dasminapant in combination with a variety of drugs and investigational agents in selected tumor cell lines
The MDM2 inhibitor alrizomadlin, the Bcl-2/Bcl-xL inhibitor pelcitoclax, and the IAPs inhibitor dasminapant were evaluated both individually and in combination with standard of care and investigational anticancer small molecules within a complex spheroid model of solid tumors. . Complex spheroids include a stromal component modeled by human endothelial cells (HUVEC) and fibroblasts modeled by human mesenchymal stem cells (MSCs). The concentration ranges selected for each drug and investigational agent were based upon clinically achievable concentrations if the clinical Cmax of the agent was known.
Compounds. The drugs and investigational agents: alrizomadlin (APG-115; NSC831270), pelcitoclax (APG-1252; NSC835773), dasminapant (APG-1387;NSC834197), TAK-243 (NSC785004), copanlisib (NSC809693), olaparib (NSC753686), talazoparib (NSC767125), cobimetinib (NSC 768068), eltanexor (KPT-8602, NSC 794443), abemaciclib (NSC 768073), sotorasib (NSC818433), adagrasib (NSC 831453), MRTX-1133 (NSC 836407), Iadademestat (ORY1001, NSC 806812), and RMC-4630 (NSC839698), were obtained from the NCI Developmental Therapeutics Program Chemical Repository. The FDA-approved anticancer drug set is available from the Developmental Therapeutics Program at https://dtp.cancer.gov/organization/dscb/obtaining/available plates.htm. […] The stock solutions were prepared in dimethyl sulfoxide (DMSO, Sigma-Aldrich, St. Louis, MO, cat. D2650) at 800-fold the tested concentration and stored at -70 degrees C prior to their use. All drugs and investigational agents were tested over a range starting from a high concentration at or near the clinical Cmax and decreasing in half-log increments. If the clinical Cmax for an agent had not been determined, the highest concentration tested was 10 microM.
The patient-derived cancer (PDC) cell lines include five colon adenocarcinomas: 186277-243-T-J2-PDC, 616215-338-R-J1-PDC, 439559-082-T-J2-PDC, 463943-066-T-J2-PDC, and 519858-162-T-J1-PDC; three pancreatic carcinomas: 323965-272-R-J2-PDC, 521955-158-R6-J3-PDC, and 521955-158-R2-J5-PDC; two uterine sarcomas: 327498-152-R-J2-PDC and 993429-296-R-J1-PDC; two rhabdomyosarcomas: 755483-174-R-J1-PDC and 772245-204-R-J1-PDC; two soft tissue sarcomas: 126254-015-R-J1-PDC and 494315-158-R-J1-PDC; two malignant fibrous histiocytomas: 317291-083-R-J1-PDC and 596521-263-R-J1-PDC; two breast carcinomas: 171881-019-R-J1-PDC and 885512-296-R-J2-PDC; and one ovarian carcinoma: 6556581-035-R-J-PDC were obtained from the NCI PDMR, (https://pdmr.cancer.gov). The established cell lines HSSY-2 synovial sarcoma (RRID:CVCL 8719), SYO-1 synovial sarcoma (RRID:CVCL_7146), MPNST malignant peripheral neural sheath tumor were obtained from the Sloan Kettering Institute. The following established cell lines were purchased from the American Type Culture Collection (ATCC, Manassas, VA), Sor the received from the NCI repository:, PANC-1 pancreatic carcinoma (CRL-1469, RRID:CVCL_0480), OVCAR-5 ovarian carcinoma (RRID:CVCL_1628), OVCAR-8 ovarian carcinoma (RRID:CVCL_1629), , MCF-7 breast carcinoma (CRL-12584, RRID:CVCL_0031), MDA-MB-231 breast carcinoma (CRL-12532, RRID:CVCL_0062), NCI-H1876 small cell lung carcinoma (CRL-5902, RRID:CVCL_1503), NCI-H510A small cell lung carcinoma (HTB-184, RRID:CVCL_1565), NCI-H1417 (CRL-5869, RRID:CVCL_1469), and NCI-H196 small cell lung carcinoma (CRL-5823, RRID:CVCL_1509). Dr. Peter Houghton (Greehey Children's Cancer Research Institute, University of Texas Health Science Center, San Antonio, TX) provided Rh-18 rhabdomyosarcoma (RRID:CVCL_1659). Pooled donor human umbilical vein endothelial cells (HUVEC, Lonza, cat. CC-2519) and human mesenchymal stem cells (hMSC, Lonza, cat. PT-2501) were purchased from Lonza (Walkersville, MD).
Cell Culture. […]

Values joined by “and” are separate entries in the source; they are usually repeats but may differ in a detail not shown here. Equal values may be shown once.
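Also: spheroids exposed to compounds for seven days.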
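For viability, T/C in this document: 100% = DMSO vehicle control wells.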

Regarding `NC(=O)C(=Cn1cnc(-c2cc(C(F)(F)F)cc(C(F)(F)F)c2)n1)c1cncnc1` + CNC(C)C(=O)NC1CN(S(=O)(=O)c2cccc(S(=O)(=O)N3CCC4CCC(C(=O)NC(c5ccccc5)c5ccccc5)N4C(=O)C(NC(=O)C(C)NC)C3)c2)CCC2CCC(C(=O)NC(c3ccccc3)c3ccccc3)N2C1=O, the IC50 was determined as 48.8 nM (curve of first compound, second compound 0.01 µM); 48.7 nM (curve of first compound, second compound 0.0316 µM); 49 nM (curve of first compound, second compound 0.1 µM); 49.9 nM (curve of first compound, second compound 0.316 µM); 48.9 nM (curve of first compound, second compound 1 µM). In addition, the viability, T/C (second compound 0.01 µM, first compound 0.000949 µM) was 96.4%; the viability, T/C (second compound 0.01 µM, first compound 0.003 µM) was 95.6%; the viability, T/C (second compound 0.01 µM, first compound 0.00949 µM) is 92.8%; the viability, T/C (second compound 0.01 µM, first compound 0.03 µM) is 80.9%; the viability, T/C (second compound 0.01 µM, first compound 0.0949 µM) is 7.83%; the viability, T/C (second compound 0.01 µM, first compound 0.3 µM) is 1.03%. Further, the viability, T/C was 96.1% (second compound 0.0316 µM, first compound 0.000949 µM); 99% (second compound 0.0316 µM, first compound 0.003 µM); 102% (second compound 0.0316 µM, first compound 0.00949 µM); 80.4% (second compound 0.0316 µM, first compound 0.03 µM); 8.3% (second compound 0.0316 µM, first compound 0.0949 µM); 0.82% (second compound 0.0316 µM, first compound 0.3 µM). Besides, the viability, T/C by setting is: (second compound 0.1 µM, first compound 0.000949 µM) 102%; (second compound 0.1 µM, first compound 0.003 µM) 103%; (second compound 0.1 µM, first compound 0.00949 µM) 110%; (second compound 0.1 µM, first compound 0.03 µM) 81.8%; (second compound 0.1 µM, first compound 0.0949 µM) 7.31%; (second compound 0.1 µM, first compound 0.3 µM) 1.06%. Besides, the viability, T/C by setting is: (second compound 0.316 µM, first compound 0.000949 µM) 106%; (second compound 0.316 µM, first compound 0.003 µM) 110%; (second compound 0.316 µM, first compound 0.00949 µM) 107%; (second compound 0.316 µM, first compound 0.03 µM) 83.7%; (second compound 0.316 µM, first compound 0.0949 µM) 7.6%; (second compound 0.316 µM, first compound 0.3 µM) 0.59%. The viability, T/C by setting is: (second compound 1 µM, first compound 0.000949 µM) 101%; (second compound 1 µM, first compound 0.003 µM) 108%; (second compound 1 µM, first compound 0.00949 µM) 110%; (second compound 1 µM, first compound 0.03 µM) 81.8%; (second compound 1 µM, first compound 0.0949 µM) 6.87%; (second compound 1 µM, first compound 0.3 µM) 0.55%.

Turning to `Cc1c(S(C)(=O)=O)c(-c2cc(F)cc(N3CCN(c4ccc(NS(=O)(=O)c5ccc(NC(CCN6CCC(C(=O)OCCCP(=O)(O)O)CC6)CSc6ccccc6)c(S(=O)(=O)C(F)(F)F)c5)cc4)CC3)c2)c(-c2ccc(Cl)cc2)n1C(C)C` (configuration not stated), the viability, T/C (compound 0.1 µM) was 84.8% [middle of 14 runs]; the viability, T/C (compound 0.316 µM) was 86.5% [middle of 14 runs]; the viability, T/C (compound 1 µM) is 88.8% [middle of 14 runs]; the viability, T/C (compound 10 µM) is 114% [middle of 14 runs]. For the same compound, the 50% inhibitory concentration (IC50) (compound alone, run of 09/27/2022) was greater than 10000 nM.

For the compound `NC(=O)C(=Cn1cnc(-c2cc(C(F)(F)F)cc(C(F)(F)F)c2)n1)c1cncnc1`, the viability, T/C was 87.5% and 102% and 84.6% (compound 0.000949 µM); 85.7% and 110% and 93.3% (compound 0.003 µM); 101% and 108% and 96.6% (compound 0.00949 µM); 74.1% and 79.4% and 91.7% (compound 0.03 µM); 8.08% and 8.06% and 10.7% (compound 0.0949 µM); 3% and 0.88% and 1.21% (compound 0.3 µM). For the setting “curve of compound”, the half-maximal inhibitory concentration (IC50) was 45.7 nM and 48.2 nM and 54.2 nM.

Broadly, the IC50 is the point on the concentration scale where inhibition reaches its midpoint. Broadly, the viability, T/C is the ratio of treated to control.
